Measurements taken from patent US20250340510A1, “Substituted Phenylbenzenesulfonamide Derivatives and Uses Thereof” (Nine Square Therapeutics Corporation, priority 2022, published 2025).

Legend:
TRPML1 = TRPML1 (Homo sapiens, UniProt Q9GZU1); test: Calcium flux in HEK293 overexpressing TRPML1 plasma membrane variant (FLIPR, Calcium 6 dye); assay type: cell-based; conditions: HEK293/TRPML1-PM clone A5 cells; 4-parameter logistic fit; read-out: TRPML1 calcium flux (FLIPR) dose response: EC50
Summary of the method: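 HEK293 clone expressing plasma-membrane-targeted TRPML1 (N- and C-terminal dileucine motifs deleted), loaded with Calcium 6 dye for 2 h at 37 °C in HBSS/20 mM HEPES pH 7.4. Fluorescence recorded 10 s baseline then 170 s after compound addition. Max-minus-min response over baseline fitted by 4-parameter logistic for EC50.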

TFEB = TFEB translocation assay in HeLa cells (nuclear to cytoplasmic TFEB ratio, high-content imaging); assay type: cell-based; conditions: Homo sapiens, 1.5 h, 90 mins incubation at 37° C., ratio of nuclear to cytoplasmic TFEB
Method: Example B2. TFEB Translocation Assay
Rabbit TFEB antibody, Cell Signaling Technology #4240S
PFA 16% MeOH-free, Election Microscopy Sciences #50-980-487
HCS CellMask Deep Red, ThermoFisher Scientific #H32721
Plates: Perkin Elmer Phenoplate #605730 black optically clear, tissue culture treated 384-well plate
Example B2.2 Method, Day 1: Cells Seeded in 384WP
Cells were seeded in the afternoon. The outer one row of the plate was not used to avoid outer well edge effects.
HeLa cells were detached using trypsin, and the cells were counted using a cell counter.
4000 HeLa cells were seeded per well in […] growth media (DMEM with 10% FBS, 1 mM sodium pyruvate and Pen-Strep).
Example B2.3 Method, Day 2: Assay with TRPML1 Compounds+Staining
Compounds were added to cells using a Tecan D300e dispenser.
Cells were incubated for 90 mins at 37° C. with the compounds (compound range: 80 nM-[…] (2× step dilution—8 dilution steps, 3 replicates per condition)
The cells were fixed by adding 16.5 μL of 16% PFA (4% final) and incubating for 15 min at room temperature.
The cells were washed with 3× in PBS-TX (PBS+0.1% Triton X-100)−1×100 μL followed by 2×50 μL.
The cells were blocked and permeabilized in 30 μL of blocking buffer (PBS-TX+5% goat serum) for 1 h.
The cells were incubated with TFEB antibody (1:200, CST 4240S) in 30 μL blocking buffer overnight at 4° C. The plates were kept damp to avoid evaporation.
Example B2.4 Method, Day 3: Staining+Imaging
The cells were washed 3× in PBS-TX—3×100 μL with a Biotek EL406 washer.
The cells were incubated with Goat anti-Rb Alexa-Fluor 488 (1:2000), cell mask (1:10,000) and Hoechst (1:10,000) in 30 μL blocking buffer for 1 h at room temperature. The solution was dispensed using a 5 μL peristaltic cassette (EL406).
The cells were washed 3× in PBS-TX—3×100 μL with a EL406 washer, then […] PBS was dispensed using a 5 μL peristaltic cassette (EL406).
The cells were imaged on an Operetta CLS High-content imaging system using a 20× water immersion objective (NA 1.0) the same day.
Image analysis was performed using Harmony V4.9 (Perkin Elmer). Briefly, nuclei were segmented from background-corrected images using Hoechst intensity, and cell body segmented using HCS CellMask DeepRed. A sliding parabola filter was applied to the AlexaFluor 488 channel (TFEB), before sum pixel intensity in the nuclear and cytoplasmic regions was calculated. A ratio of nuclear to cytoplasmic TFEB was used to define TFEB translocation from the cytosolic to nuclear compartment. The EC50 values derived by fitting the data to a sigmoidal dose response curve using Prism 9 (Graphpad).

TRPML1, sequence (Q9GZU1 17-572 limits assumed): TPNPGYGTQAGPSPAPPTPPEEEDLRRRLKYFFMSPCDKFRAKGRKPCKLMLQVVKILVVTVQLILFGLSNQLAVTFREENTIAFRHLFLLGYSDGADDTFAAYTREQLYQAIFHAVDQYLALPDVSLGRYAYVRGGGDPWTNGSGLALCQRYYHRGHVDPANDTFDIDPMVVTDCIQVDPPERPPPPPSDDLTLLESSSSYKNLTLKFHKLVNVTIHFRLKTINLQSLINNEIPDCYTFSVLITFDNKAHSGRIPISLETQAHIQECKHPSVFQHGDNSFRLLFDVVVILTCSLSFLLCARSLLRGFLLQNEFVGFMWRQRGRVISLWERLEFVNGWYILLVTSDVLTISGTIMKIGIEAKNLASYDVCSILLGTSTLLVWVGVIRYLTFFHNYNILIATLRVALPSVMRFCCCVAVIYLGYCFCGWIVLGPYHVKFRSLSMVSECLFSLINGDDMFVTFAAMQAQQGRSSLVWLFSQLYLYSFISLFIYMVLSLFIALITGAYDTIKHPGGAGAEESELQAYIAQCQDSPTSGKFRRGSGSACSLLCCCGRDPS

Row | Compound | EC50 (TRPML1) [nM] | EC50 (TFEB; HeLa) [nM] | EC50 (TFEB) [nM]
1 | CN(Cc1cncs1)c1ccccc1NS(=O)(=O)c1ccc(S(=O)(=O)N(C)C)cc1 [Compound 55, N1,N1-dimethyl-N4-(2-(methyl(thiazol-5-ylmethyl)amino)phenyl)benzene-1,4-disulfonamide] | 250 | 870 | –
2 | CN(CC1(F)CCCCC1)c1ccccc1NS(=O)(=O)c1ccc(S(=O)(=O)N(C)C)cc1 [Compound 96, N1-(2-(((1-fluorocyclohexyl)methyl)(methyl)amino)phenyl)-N4,N4-dimethylbenzene-1,4-disulfonamide] | 247 | – | 140
3 | CN(CC1(C)CCOCC1)c1ccccc1NS(=O)(=O)c1ccc(S(=O)(=O)N(C)C)cc1 [Compound 10, N1,N1-dimethyl-N4-(2-(methyl((4-methyltetrahydro-2H-pyran-4-yl)methyl)amino)phenyl)benzene-1,4-disulfonamide] | 870 | 2340 | –
4 | CN(CC1(C)COC1)c1ccccc1NS(=O)(=O)c1ccc(S(=O)(=O)N(C)C)cc1 [Compound 49, N1,N1-dimethyl-N4-(2-(methyl((3-methyloxetan-3-yl)methyl)amino)phenyl)benzene-1,4-disulfonamide] | 1140 | – | 7970
5 | CN(c1ccccc1NS(=O)(=O)c1ccc(S(=O)(=O)N(C)C)cc1)C1CCCC1 [Compound 24, N1-(2-(cyclopentyl(methyl)amino)phenyl)-N4,N4-dimethylbenzene-1,4-disulfonamide] | 280 | 1870 | –
6 | CC(C)CCN(C)c1ccccc1NS(=O)(=O)c1ccc(S(=O)(=O)N(C)C)cc1 [Compound 6, N1-(2-(isopentyl(methyl)amino)phenyl)-N4,N4-dimethylbenzene-1,4-disulfonamide] | 290 | 4860 | –
7 | CN(CC1CC1)c1ccccc1NS(=O)(=O)c1ccc(S(=O)(=O)N(C)C)cc1 [Compound 14, N1-(2-((cyclopropylmethyl) (methyl)amino)phenyl)-N4,N4-dimethylbenzene-1,4-disulfonamide] | 1560 | 2030 | –
8 | CN(c1ccccc1NS(=O)(=O)c1ccc(S(=O)(=O)N(C)C)cc1)C1(C)CCCCC1 [Compound 17, N1,N1-dimethyl-N4-(2-(methyl(1-methylcyclohexyl)amino)phenyl)benzene-1,4-disulfonamide] | 190 | 450 | –
9 | Cc1nc(CN(C)c2ccccc2NS(=O)(=O)c2ccc(S(=O)(=O)N(C)C)cc2)ccc1F [Compound 85, N1-(2-(((5-fluoro-6-methylpyridin-2-yl)methyl)(methyl)amino)phenyl)-N4,N4-dimethylbenzene-1,4-disulfonamide] | 447 | 1000 | –
10 | CN(CC12CC(C1)C2)c1ccccc1NS(=O)(=O)c1ccc(S(=O)(=O)N(C)C)cc1 [Compound 66, N1-(2-((bicyclo[1.1.1]pentan-1-ylmethyl)(methyl)amino)phenyl)-N4,N4-dimethylbenzene-1,4-disulfonamide] | 236 | 927 | –
11 | CN(CC12CC(C)(C1)C2)c1ccccc1NS(=O)(=O)c1ccc(S(=O)(=O)N(C)C)cc1 [Compound 65, N1,N1-dimethyl-N4-(2-(methyl((3-methylbicyclo[1.1.1]pentan-1-yl)methyl)amino)phenyl)benzene-1,4-disulfonamide] | 319 | 396 | –
12 | CN(CC1CCC1)c1ccccc1NS(=O)(=O)c1ccc(S(=O)(=O)N(C)C)cc1 [Compound 106, N1-(2-((cyclobutylmethyl)(methyl)amino)phenyl)-N4,N4-dimethylbenzene-1,4-disulfonamide] | 371 | 464 | –
13 | CN(c1ccccc1NS(=O)(=O)c1ccc(S(=O)(=O)N(C)C)cc1)C1CCC(C)(C)C1 (centres unmarked) [Compound 20, N1-(2-((3,3-dimethylcyclopentyl)(methyl)amino)phenyl)-N4,N4-dimethylbenzene-1,4-disulfonamide] | 260 | 270 | –
14 | Cc1ccc(N(C)C2CCCCC2)c(NS(=O)(=O)c2ccc(S(=O)(=O)N(C)C)cc2)c1 [Compound 117, N1-(2-(cyclohexyl(methyl)amino)-5-methylphenyl)-N4,N4-dimethylbenzene-1,4-disulfonamide] | 353 | 83.7 | –
15 | CN(c1ccccc1NS(=O)(=O)c1ccc(S(=O)(=O)N(C)C)cc1)C1CCC(F)(F)C1 (centres unmarked) [Compound 99, N1-(2-((3,3-difluorocyclopentyl) (methyl)amino)phenyl)-N4,N4-dimethylbenzene-1,4-disulfonamide] | 433 | 573 | –
16 | CN(c1ccccc1NS(=O)(=O)c1ccc(S(=O)(=O)N(C)C)cc1)C1CCC(C)(C)CC1 [Compound 29, N1-(2-((4,4-dimethylcyclohexyl)(methyl)amino)phenyl)-N4,N4-dimethylbenzene-1,4-disulfonamide] | 510 | 2270 | –
17 | CN(Cc1ccccc1)c1ccccc1NS(=O)(=O)c1ccc(S(=O)(=O)N(C)C)cc1 [Compound 26, N1-(2-(benzyl(methyl)amino)phenyl)-N4,N4-dimethylbenzene-1,4-disulfonamide] | 300 | 830 | –
18 | CN(Cc1cscn1)c1c(Cl)cccc1NS(=O)(=O)c1ccc(S(=O)(=O)N(C)C)cc1 [Compound 64, N1-(3-chloro-2-(methyl(thiazol-4-ylmethyl)amino)phenyl)-N4,N4-dimethylbenzene-1,4-disulfonamide] | 453 | 1390 | –
19 | CCN(CC)c1c(Cl)cccc1NS(=O)(=O)c1ccc(S(=O)(=O)N(C)C)cc1 [Compound 77, N1-(3-chloro-2-(diethylamino)phenyl)-N4,N4-dimethylbenzene-1,4-disulfonamide] | 472 | 705 | –
20 | CN(CC1CCCCC1)c1ccccc1NS(=O)(=O)c1ccc(S(=O)(=O)N(C)C)cc1 [Compound 23, N1-(2-((cyclohexylmethyl)(methyl)amino)phenyl)-N4,N4-dimethylbenzene-1,4-disulfonamide] | 410 | 200 | –
21 | [2H]C([2H])([2H])N(c1ccccc1NS(=O)(=O)c1ccc(S(=O)(=O)N(C)C)cc1)C1CCCCC1 [Compound 102, N1-(2-(cyclohexyl(methyl-d3)amino)phenyl)-N4,N4-dimethylbenzene-1,4-disulfonamide] | 412 | 388 | –
22 | CC(C)CN(C)c1c(Cl)cccc1NS(=O)(=O)c1ccc(S(=O)(=O)N(C)C)cc1 [Compound 76, N1-(3-chloro-2-(isobutyl(methyl)amino)phenyl)-N4,N4-dimethylbenzene-1,4-disulfonamide] | 521 | 330 | –
